Assay results reported in patent US5468774A, “Tetronic, thiotetronic and tetramic acid derivatives as phospholipase A.sub ” (American Home Products Corporation, priority 1995, dated 1995).

What was measured:
5-lipoxygenase = experiment: Resident murine peritoneal macrophage assay, LTC4 (5-lipoxygenase); type: cell-based, murine (female Swiss Webster mice); settings: for inhibition at 0.5 µM: Peritoneal macrophage
Description: (§1) The ability of the compounds of the invention to act as inhibitors of the enzymes 5-lipoxygenase and cyclooxygenase is measured in the resident murine peritoneal macrophage assay.
(§2) Resident peritoneal macrophages are collected from female Swiss Webster mice (49 days old, 20-25 gms, Buckshire) by lavaging with 7-8 ml Hanks Balanced Salt Solution (HBSS) without Ca^++ and Mg^++ (GIBCO). The lavage fluid from several mice is pooled and centrifuged at 4° C. for 10 minutes at 400 xg.
(§3) Residual serum and cellular debris are removed from the monolayers by washing 3x with 2 ml HBSS containing Ca^++ and Mg^++. Macrophages are preincubated for 5 minutes with 1 ml serum-free M199 containing 10 μl dimethyl sulfoxide (DMSO) vehicle or test compound prior to cell activation with zymosan ([…]) or arachidonic acid (AA) (2 μM). After 2 hours, the supernatants are removed and either assayed for LTC4 and PGE2 by radioimmunoassay (RIA) directly or stored at -20° C. In all cases, results are expressed as ng metabolite/4×10^6 cells.
(§4) Raw data (dpm) may be stored directly onto an "Autostart" tape using the HP85 in room C-096. The raw data are converted to ng metabolite/4-10^6cells using the standard curve by a "RIANAL" program (HP85) or a "NONLIN" program (HP9816). Results are then expressed as percent inhibition of zymosan induced, leukotriene or prostaglandin synthesis (control) using the equation: [formula]

cyclooxygenase = experiment: Resident murine peritoneal macrophage assay, PGE2 (cyclooxygenase); type: cell-based, murine (female Swiss Webster mice); settings: mouse peritoneal macrophages; for inhibition at 0.5 µM: Peritoneal macrophage
Description: as §1
as §2, with “xg. The cell pellet is resuspended in Medium 199 (GIBCO) with HEPES buffer containing 100 μg/ml gentamicin. Two ml of the cell suspension (4×10^6 cells) are then plated on 35 mm culture dishes (Nunc).” for “xg.”
A macrophage monolayer is established after a 1-1.5 hour incubation of the cells at 37° C. in an atmosphere of 95% O2 and 5% CO2. The monolayers are washed 2x with 2 ml HBDSS, containing Ca^++ and Mg^++ after which 2 ml Medium 199 supplemented with 10% freshly thawed heat-inactivated fetal bovine serum and 100 μg/ml gentamicin is added for an overnight incubation.
as §3, §4

[1] = tested on: LTB4 biosynthesis in human neutrophils; experiment: Inhibition of LTB4 biosynthesis in purified human neutrophils (in vitro phospholipase A2 assay); type: cell-based; settings: Neutrophil, A23187 stimulated human PMN
Description: (§5) The compounds of the invention are tested in an in vitro phospholipase A2 assay to determine the ability of the compounds to inhibit the biosynthesis of platelet-activating factor and LTB4 in purified human neutrophils.
(§6) A leukocyte enriched blood sample obtained from a healthy donor is procured by leukophoresis using a Haemonetics model 30+ blood processor (Biological Specialties, Inc., Lansdale, Pa.). The top "platelet-rich" layer is removed after a low speed spin (35 xg, 15 min, 25° C.) of the sample. The remaining cell suspension is centrifuged (400 xg, 10 min, 25° C.) to sediment the remaining cells. The supernatant is discarded and the cell pellet resuspended in 120 ml HBSS (without Ca^++ /Mg^++). The cell suspension is subjected to ficoll-hypaque sedimentation (Histopaque 1077, 400 xg, 30 min, 25° C). Contaminating erythrocytes are lysed by hypotonic shock (1 min). The cells are then washed once with 40 ml of HBSS and resuspended with HBSS (without Ca^++ /Mg^++) to a concentration of 2.5×10^7 cells/ml for further use. Greater than 95% purity is obtained, as assessed by microscopic examination.
(§7) One ml of human PMN (2.5×10^7 cells/ml) is incubated with vehicle or drugs (10 μl) for 10 minutes at 30° C. After preincubation, an equal volume of HBSS (1 ml) containing 2.4 mM CaCl2, 6 μM calcium ionophore A23187 and 50 μCi[^3 H]-acetate is then incubated at 30° C. for 15 minutes. An aliquot (100 μl) of the reaction mixture is taken out and mixed with 900 μl of 15% ethanol. LTB4 is extracted by using solid phase extraction on reverse phase C18 columns to remove excess [^3 H]-acetate and PAD. […] The quantity of LTB4 in the sample is obtained from RIA determination. […] [^3 H]-PAF is resolved from other phospholipids by TLC on RPC18 plates with a solvent system of chloroform:methanol:water (2:3:1, v/v/v) and is quantitated using a Berthold automated TLC linear analyzer.
(§8) Data presented are the mean +/- s.d. of the values relative to control A23187 stimulated cells for each experiment assayed in triplicate. Percent inhibition when used is calculated as: […]

Human Synovial PLA2 = target: T1, Human Synovial PLA2 (Homo sapiens, UniProt P14555); experiment: In vitro isolated phospholipase A2 assay, arachidonic acid release from 3H-AA E. coli substrate, human synovial fluid PLA2; type: biochemical; settings: read-out: % Inhibition at 10 μM HSF (human synovial fluid)
T1 construct: Purified human synovial fluid; from tissue; host or cells: human synovial fluid (purified)
T1 sequence (P14555 21-144): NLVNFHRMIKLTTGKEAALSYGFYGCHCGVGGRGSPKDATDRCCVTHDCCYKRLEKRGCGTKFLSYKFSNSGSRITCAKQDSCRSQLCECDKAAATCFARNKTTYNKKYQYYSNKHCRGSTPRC
Description: (§9) The compounds of the invention are tested in an in vitro isolated phospholipase A2 assay to determine the ability of the test compounds to inhibit the release of arachidonic acid from an arachidonic acid-containing substrate by the action of phospholipase A2 enzyme from human and non-human sources.
(§10) Into a 15 mL polypropylene tube are added the following: […]
(§11) ^3 H-AA E. coli substrate^1
(§12) Tris-HCl (0.5M) pH 7.5^3
(§13) PLA2 25 Volume yielding 12%
(§14) *pre-incubate at room temperature 30 min prior to substrate addition.
(§15) ^1 Prepared by adding 2 mL deionized and distilled water to 2 mL
(§16) ^5 Stock 10 mM prepared in dimethyl sulfoxide. Make 1:2 dilution with
(§17) ^6 Two human PLA2 enzymes are used:
b) Purified human synovial fluid.
(§18) Incubate the 100μL reaction mixture for 10 minutes at 37° C. in a shaking water bath. The reaction is terminated by the addition of 2 mL tetrahydrofuran, followed by vortexing. NH2 columns ([…]--Analytichem International) are conditioned with 0.5 mL tetrahydrofuran followed by 0.5 mL tetrahydrofuran/water (2 mL:0.1 mL, v/v).
(§19) The sample is loaded onto the columns and slowly drawn through them. The hydrolyzed arachidonic acid retained in the columns is eluted therefrom with 1 mL tetrahydrofuran/glacial acetic acid (2%). The arachidonic acid is transferred to scintillation vials and quantitated by β-counting analysis. […]

[2] = tested on: Platelet-Activating Factor Biosynthesis in Human Polymorphonuclear Neutrophils; experiment: Inhibition of platelet-activating factor (PAF) biosynthesis in human polymorphonuclear neutrophils (in vitro phospholipase A2 assay); type: cell-based; settings: Polymorphonuclear neutrophil, A23187 stimulated human PMN
Description: as §5, §6, §7, §8

Human Platelet PLA2 = target: T2, Human Platelet PLA2 (Homo sapiens, UniProt P14555); experiment: In vitro isolated phospholipase A2 assay, arachidonic acid release from 3H-AA E. coli substrate, human platelet PLA2; type: biochemical; settings: read-out: % Inhibition at 10 μM HP (human platelet)
T2 construct: Semipurified human platelet acid extract PLA2; from tissue; host or cells: human platelets (semipurified acid extract)
T2 sequence (P14555 21-144): T1 sequence (P14555 21-144)
Description: as §9, §10, §11, §12, §13, §14, §15, §16, §17
a) Semipurified human platelet acid extract PLA2 (in 10 Mm sodium
as §18, §19

[3] = 0.5 μM, mouse peritoneal macrophages

## O=C(NCCC1CCCCCCCCCCC1)C1=C(O)COC1=O [Example 15, 4-Hydroxy-2-oxo-2,5-dihydro-furan-3-carboxylic acid-2-cyclododecyl-ethylamide]
5-lipoxygenase; [3]
  inhibition at 0.5 µM: 25.9%
cyclooxygenase
  inhibition at 0.5 µM: 52%

## CCCCCC#CCC#CCC#CCC#CCCCC(=O)O [ETYA, reference compound]
5-lipoxygenase; reference compounds
  IC50: 0.44 µM

## O=C(CCC1CCCCCCCCCCC1)C1=C(O)COC1=O [Example 1, 3-(3-Cyclododecyl-1-oxopropyl)-4-hydroxy-2(5H)-furanone]
5-lipoxygenase; [3]
  inhibition at 0.5 µM: 29%
[1]
  inhibition at 10 µM: 95.1%
Human Synovial PLA2
  inhibition at 10 µM: 41.9%
[2]
  inhibition at 10 µM: 84.3%
Human Platelet PLA2
  inhibition at 10 µM: -3.7%
cyclooxygenase
  inhibition at 0.5 µM: 46.7%

## CN1CC(O)=C(C(=O)CCC2CCCCCCCCCCC2)C1=O [Example 3, 3-(3-cyclododecyl-1-oxopropyl)-1.5-dihydro-4-hydroxy-1-methyl-1H-pyrrolin-2-one]
5-lipoxygenase; [3]
  inhibition at 0.5 µM: 66.2%
[1]
  inhibition at 10 µM: 90.4%
[2]
  inhibition at 10 µM: 64.4%
cyclooxygenase
  inhibition at 0.5 µM: 75.9%

## O=C(CCC1CCCCCCCCCCC1)C1=C(O)CSC1=O [Example 2, 3-(3-cyclododecyl-1-oxopropyl)-4-hydroxy-2(5H)-thiophenone]
5-lipoxygenase; [3]
  inhibition at 0.5 µM: 76.1%
[1]
  inhibition at 10 µM: 69.6%
Human Synovial PLA2
  inhibition at 10 µM: 53%
[2]
  inhibition at 10 µM: 79.2%
Human Platelet PLA2
  inhibition at 10 µM: 18.2%
cyclooxygenase
  inhibition at 0.5 µM: 97.1%

## O=C(COCC1CCCCCCCCCCC1)C1=C(O)CSC1=O [Example 16]
5-lipoxygenase; [3]
  LTC4 % Inhibition: 33.0%
cyclooxygenase; 0.5 μM
  PGE2 % Inhibition: 77.0%
